The values below come from ChEMBL document CHEMBL5325467, “Discovery of novel hypoxia-activated, nitroimidazole constructed multi-target kinase inhibitors on the basis of AZD9291 for the treatment of human lung cancer” (Bioorg Med Chem, 2023).

One may read the IC50 as the concentration at which inhibition is half-maximal.

Assay [1] deals with Epidermal growth factor receptor (Homo sapiens, UniProt P00533, L858R/T790M). Description: Inhibition of EGFR L858R/T790M mutant (unknown origin) by mobility shift assay.
For assay [2], the target named is Epidermal growth factor receptor (Homo sapiens, UniProt P00533). Description: Inhibition of wild type EGFR (unknown origin) by mobility shift assay.
A short description of assay [3]: Selectivity index, ratio of IC50 for inhibition of wild type EGFR (unknown origin) to IC50 for inhibition of EGFR L858R/T790M mutant (unknown origin).
For assay [4], the system named is NCI-H1975. Nature of the assay: Antiproliferative activity against human NCI-H1975 cells harboring EGFR L858R/T790M mutant assessed as inhibition of cell growth incubated for 72 hrs under normoxia condition by SRB assay. Format: functional, cell-based. The conditions noted are these: NCI-H1975, 72 h.
Assay [5] deals with NCI-H1975. Description: Antiproliferative activity against human NCI-H1975 cells harboring EGFR L858R/T790M mutant assessed as inhibition of cell growth incubated for 72 hrs under hypoxia condition by SRB assay. The class given is functional, cell-based. As to conditions: NCI-H1975, 72 h. (In general: The SRB assay estimates cell density from bound dye.)
Assay [6] deals with HCC827. Description: Antiproliferative activity against human HCC827 cells harboring EGFR del19 mutant assessed as inhibition of cell growth incubated for 72 hrs under normoxia condition by SRB assay. The conditions noted are these: HCC827, 72 h. The class given is functional, cell-based.
Assay [7] relates to HCC827. Nature of the assay: Antiproliferative activity against human HCC827 cells harboring EGFR del19 mutant assessed as inhibition of cell growth incubated for 72 hrs under hypoxia condition by SRB assay. Format: functional, cell-based. As to conditions: HCC827, 72 h.
Assay [8] is described as follows: Ratio of IC50 for antiproliferative activity against human NCI-H1975 cells harboring EGFR L858R/T790M mutant under normoxia condition to IC50 for antiproliferative activity against human NCI-H1975 cells harboring EGFR L858R/T790M mutant under hypoxia condition. The class given is functional.
Assay [9] can be described thus: Ratio of IC50 for antiproliferative activity against human HCC827 cells harboring EGFR del19 mutant under normoxia condition to IC50 for antiproliferative activity against human HCC827 cells harboring EGFR del19 mutant under hypoxia condition. The class given is functional.

Bounds are passed on as bounds.

Epidermal growth factor receptor (Homo sapiens, UniProt P00533), sequence (P00533 whole entry): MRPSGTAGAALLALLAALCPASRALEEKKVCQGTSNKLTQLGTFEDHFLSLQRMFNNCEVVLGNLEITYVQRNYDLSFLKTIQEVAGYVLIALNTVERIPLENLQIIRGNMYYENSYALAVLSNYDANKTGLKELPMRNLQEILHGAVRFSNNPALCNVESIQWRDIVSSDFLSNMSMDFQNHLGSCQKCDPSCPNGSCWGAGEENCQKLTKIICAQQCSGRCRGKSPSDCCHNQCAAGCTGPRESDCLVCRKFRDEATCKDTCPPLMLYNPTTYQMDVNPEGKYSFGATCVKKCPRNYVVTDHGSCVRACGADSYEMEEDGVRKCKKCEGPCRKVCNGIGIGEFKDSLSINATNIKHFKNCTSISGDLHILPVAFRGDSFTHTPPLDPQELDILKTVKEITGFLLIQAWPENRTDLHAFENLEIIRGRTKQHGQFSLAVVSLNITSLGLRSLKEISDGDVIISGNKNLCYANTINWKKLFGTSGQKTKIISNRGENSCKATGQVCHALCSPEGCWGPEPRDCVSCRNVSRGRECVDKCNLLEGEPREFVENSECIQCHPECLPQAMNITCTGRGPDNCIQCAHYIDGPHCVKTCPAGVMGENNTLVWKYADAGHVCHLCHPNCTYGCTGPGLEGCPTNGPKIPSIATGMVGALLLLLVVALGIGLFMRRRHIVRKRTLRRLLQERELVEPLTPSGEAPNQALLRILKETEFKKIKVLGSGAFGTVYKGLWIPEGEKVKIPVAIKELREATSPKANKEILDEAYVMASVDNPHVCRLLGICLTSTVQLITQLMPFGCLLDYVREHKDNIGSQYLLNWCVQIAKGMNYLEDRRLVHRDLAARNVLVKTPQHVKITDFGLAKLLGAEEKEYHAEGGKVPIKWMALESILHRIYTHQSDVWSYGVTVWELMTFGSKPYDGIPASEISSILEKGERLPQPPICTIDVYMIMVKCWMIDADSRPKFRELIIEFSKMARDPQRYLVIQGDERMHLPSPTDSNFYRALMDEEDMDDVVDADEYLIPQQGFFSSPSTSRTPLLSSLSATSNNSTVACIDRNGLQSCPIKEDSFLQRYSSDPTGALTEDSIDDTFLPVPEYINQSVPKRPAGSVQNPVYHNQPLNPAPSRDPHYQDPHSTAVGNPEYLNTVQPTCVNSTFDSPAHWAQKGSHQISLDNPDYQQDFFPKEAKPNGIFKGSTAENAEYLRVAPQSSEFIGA
Epidermal growth factor receptor (Homo sapiens, UniProt P00533, L858R/T790M), sequence (P00533 25-1210 T790M/L858R limits assumed): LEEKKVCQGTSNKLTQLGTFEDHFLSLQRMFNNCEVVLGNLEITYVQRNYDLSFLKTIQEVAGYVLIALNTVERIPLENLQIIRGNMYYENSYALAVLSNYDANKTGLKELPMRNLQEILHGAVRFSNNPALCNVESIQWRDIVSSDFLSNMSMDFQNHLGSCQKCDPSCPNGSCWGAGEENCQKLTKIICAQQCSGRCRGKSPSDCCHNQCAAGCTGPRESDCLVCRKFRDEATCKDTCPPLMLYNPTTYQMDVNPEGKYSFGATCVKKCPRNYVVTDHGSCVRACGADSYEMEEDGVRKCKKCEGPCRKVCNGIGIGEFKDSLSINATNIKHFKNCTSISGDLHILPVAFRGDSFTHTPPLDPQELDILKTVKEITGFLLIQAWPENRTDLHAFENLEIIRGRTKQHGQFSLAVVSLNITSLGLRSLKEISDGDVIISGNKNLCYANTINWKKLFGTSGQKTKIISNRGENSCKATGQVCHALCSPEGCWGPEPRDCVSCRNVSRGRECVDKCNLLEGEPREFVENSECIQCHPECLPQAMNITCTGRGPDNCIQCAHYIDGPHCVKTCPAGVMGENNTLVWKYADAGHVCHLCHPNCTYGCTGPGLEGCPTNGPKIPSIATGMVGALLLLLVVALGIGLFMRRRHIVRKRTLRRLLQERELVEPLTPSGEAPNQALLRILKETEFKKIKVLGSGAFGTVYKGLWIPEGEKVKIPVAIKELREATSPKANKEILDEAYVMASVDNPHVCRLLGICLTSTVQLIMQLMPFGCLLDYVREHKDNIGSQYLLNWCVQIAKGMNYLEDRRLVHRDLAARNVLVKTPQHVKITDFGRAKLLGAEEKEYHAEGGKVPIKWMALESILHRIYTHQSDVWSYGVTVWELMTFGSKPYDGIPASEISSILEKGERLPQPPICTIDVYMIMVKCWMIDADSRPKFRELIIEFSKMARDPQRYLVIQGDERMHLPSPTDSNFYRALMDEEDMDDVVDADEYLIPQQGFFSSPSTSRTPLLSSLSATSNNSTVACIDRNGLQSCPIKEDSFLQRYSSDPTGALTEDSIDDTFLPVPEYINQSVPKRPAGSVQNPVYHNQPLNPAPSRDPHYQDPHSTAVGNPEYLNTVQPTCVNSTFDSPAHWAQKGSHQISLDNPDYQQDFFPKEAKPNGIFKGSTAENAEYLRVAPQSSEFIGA

For `Cn1cc(-c2ccnc(Nc3cccc(OCCCCn4cnc([N+](=O)[O-])c4)c3)n2)c2ccccc21`, the IC50 was 233 nM in assay [1] and 1880 nM in assay [2]. Besides, the Ratio IC50 in assay [3] is 8.08.
For `CC(=O)c1ccc(Nc2nccc(-c3cn(C)c4ccccc34)n2)cc1OCCOCCn1ccnc1[N+](=O)[O-]`, in that order: 262 nM, 7440 nM and 28.4.
As for `Cn1cc(-c2ccnc(Nc3cccc(OCCOCCn4ccnc4[N+](=O)[O-])c3)n2)c2ccccc21`, the IC50 in assay [1] was 442 nM; in assay [2], 4000 nM. In addition, the Ratio IC50 in assay [3] was 9.05.
Take `C=CC(=O)Nc1cc(Nc2nccc(-c3cn(C)c4ccccc34)n2)c(OC)cc1N(C)CCN(C)C` [OSIMERTINIB]: the IC50 in [4] stood at […]; in [5] it was […]; in assay [6] it was 33.7 nM; in assay [7], 32.3 nM.
Take `Cc1ccc(OCCOCCn2ccnc2[N+](=O)[O-])cc1Nc1nccc(-c2cn(C)c3ccccc23)n1`: the IC50 in [1] stood at 1310 nM.
Turning to `Cc1cc(Nc2nccc(-c3cn(C)c4ccccc34)n2)ccc1OCCOCCn1ccnc1[N+](=O)[O-]`, the IC50 in [1] amounted to 456 nM; in assay [2], 9200 nM. In addition, the Ratio IC50 in assay [3] turned out to be 20.2.
Consider `Cn1cc(-c2ccnc(Nc3ccc(Cl)c(OCCOCCn4ccnc4[N+](=O)[O-])c3)n2)c2ccccc21`, for which, in [1], the IC50 was found to be 2670 nM.
The same measure, in the same setting: the value for `Cn1cc(-c2ccnc(Nc3ccc(OCCCCn4cnc([N+](=O)[O-])c4)c(F)c3)n2)c2ccccc21` was 829 nM.
Turning to `Cn1cc(-c2ccnc(Nc3cccc(OCCCCn4ccnc4[N+](=O)[O-])c3)n2)c2ccccc21`, the IC50 in assay [1] was found to be 227 nM; in [2], 3570 nM. The Ratio IC50 in [3] worked out at 15.7.
Regarding `Cn1cc(-c2ccnc(Nc3ccc(OCCOCCn4ccnc4[N+](=O)[O-])cc3)n2)c2ccccc21`, the IC50 in assay [1] worked out at 512 nM; in assay [2], 9370 nM. In addition, the Ratio IC50 in [3] is 18.3.
Take `Cn1cc(-c2ccnc(Nc3ccc(OCCCCn4ccnc4[N+](=O)[O-])cc3)n2)c2ccccc21`: the IC50 in assay [1] was determined as 1180 nM.
For the compound `Cn1cc(-c2ccnc(Nc3cccc(COCCOCCn4ccnc4[N+](=O)[O-])c3)n2)c2ccccc21`, the IC50 in [1] amounted to 4030 nM.
In the case of `Cn1cc(-c2ccnc(Nc3cccc(C(=O)NCCOCCn4ccnc4[N+](=O)[O-])c3)n2)c2ccccc21`, the IC50 in assay [1] came to 818 nM.
With `Cn1cc(-c2ccnc(Nc3cc(OCCOCCn4ccnc4[N+](=O)[O-])ccc3F)n2)c2ccccc21`, the IC50 in [1] worked out at 199 nM; in [2] it was 7660 nM; in [4], 31 nM; in assay [5] it was 7.59 nM; in [6] it was 32.1 nM; in assay [7], 6.28 nM. Also, the “Ratio IC50” value in assay [8] was 4.08; in assay [9], 5.11.
On to `Cn1cc(-c2ccnc(Nc3ccc(OCCOCCn4ccnc4[N+](=O)[O-])c(F)c3)n2)c2ccccc21`, for which the IC50 was 722 nM in [1] and > 10000 nM in assay [2]. Further, the Ratio IC50 in [3] was > 13.8.
